Measured values taken from patent US20240217979A1, “GluN2 Subunit Selective Antagonists of the N-Methyl-D-Aspartate Receptors” (Emory University, priority 2021, published 2024).

Tests used:
Assay type in all cases: cell-based
[1] = target: T1, rat GluN1/GluN2B (Rattus norvegicus, UniProt Q00960); assay: Two-electrode voltage-clamp recording in Xenopus laevis oocytes expressing recombinant rat GluN1/GluN2B
T1 construct: expressed in transfected cells; host or cells: Xenopus laevis oocytes (cRNA injection, GluN1/GluN2 ratio 1:2)
Protocol: (§1) Two-electrode voltage-clamp recording was performed in Xenopus laevis oocytes injected with mRNA to express recombinant rat GluN1/GluN2A, GluN1/GluN2B, GluN1/GluN2C, and GluN1/GluN2D. cDNAs for rat NMDA subunits GluN1-la (GenBank U08261; hereafter GluN1), GluN2A (GenBank D13211), GluN2B (GenBank U11419), GluN2C (GenBank M91563), and GluN2D (GenBank L31611) were provided by Drs. S. Heinemann from Salk Institute, S. Nakanishi from Kyoto University, and P. Seeburg from the University of Heidelberg. An automatic injector (Nanoject II, Drummond Scientific) was used for cRNA injection using the pipettes filled with mineral oil. The cRNA that transcribed in vitro via the mMessage Machine kit (Ambion) was diluted with nuclease-free water, and then injected at a GluN1/GluN2 ratio of 1:2. The oocytes were stored in Barth's solution that contained 88 mM NaCl, 5.0 mM Tris-HCl, 2.4 mM NaHCO3, 1.0 mM KCl, 0.84 mM MgSO4, 0.41 mM CaCl2), 0.33 mM Ca(NO3)2, 0.1 mg/ml gentamycin sulfate, 1.0 U/ml penicillin, and 1 μg/ml streptomycin at pH 7.4 and temperatures of 15-17° C. for two to five days before the two-electrode voltage-clamp recordings.
(§2) During recording, the oocytes were placed in a perfusion chamber and continually washed with the recording solution containing 90 mM NaCl, 1.0 mM KCl, 0.50 mM BaCl2, 0.005 mM EDTA, and 10 mM HEPES at pH 7.4 and a temperature of 23° C. Glass electrodes with a tip resistance of 0.5 to 2.5 MΩ were obtained from thin-walled glass capillary tubes. Voltage electrodes and current electrodes were filled with 0.3 M and 3.0 M KCl, respectively. The recordings were executed with the oocytes membrane potential holding at −40 mV by an OC-725 amplifier (Warner Instrument Co.). All compounds were dissolved in dimethyl sulfoxide (DMSO) as 20 mM stock solutions and further diluted to reach the desired concentration (0.05-0.5% (vol/vol) DMSO) in recording solution comprised of 30 µM glycine and 100 µM glutamate. In general, each compound was tested in multiple oocytes. To evaluate the inhibitory efficacy of the compounds, concentration-response curves were plotted using the average two-electrode voltage-clamp recording results and fitted by the following equation:
(§3) response=100/{1+[(inhibitor concentration)/IC50]^N} • where IC50 is the concentration of compound that inhibit half maximal of the current response and N is the Hill slope.

[2] = target: T2, rat GluN1/GluN2C (Rattus norvegicus, UniProt Q00961); assay: Two-electrode voltage-clamp recording in Xenopus laevis oocytes expressing recombinant rat GluN1/GluN2C; details: current ratio reported for 10 μM test compound (footnote c)
T2 construct: expressed in transfected cells; host or cells: Xenopus laevis oocytes (cRNA injection, GluN1/GluN2 ratio 1:2)
Protocol: as §1, §2, §3

[3] = target: T3, rat GluN1/GluN2A (Rattus norvegicus, UniProt Q00959); assay: Two-electrode voltage-clamp recording in Xenopus laevis oocytes expressing recombinant rat GluN1/GluN2A; details: current ratio reported for 10 μM test compound (footnote c)
T3 construct: expressed in transfected cells; host or cells: Xenopus laevis oocytes (cRNA injection, GluN1/GluN2 ratio 1:2)
Protocol: as §1, §2, §3

[4] = target: T4, rat GluN1/GluN2D (Rattus norvegicus, UniProt Q62645); assay: Two-electrode voltage-clamp recording in Xenopus laevis oocytes expressing recombinant rat GluN1/GluN2D; details: for Current ratio I/Icontrol (mean ± SEM, %) GluN2D: current ratio reported for 10 μM test compound (footnote c); for Subunit Selectivity 2A IC50/2D IC50: ratio of GluN2A IC50 to GluN2D IC50; for Subunit Selectivity 2B IC50/2D IC50: ratio of GluN2B IC50 to GluN2D IC50
T4 construct: expressed in transfected cells; host or cells: Xenopus laevis oocytes (cRNA injection, GluN1/GluN2 ratio 1:2)
Protocol: as §1, §2, §3

[5] = target: T5, rat GluN1/GluN2B (Rattus norvegicus, UniProt P35439+Q00960); assay: Two-electrode voltage-clamp recording in Xenopus laevis oocytes expressing recombinant rat GluN1/GluN2B; details: for remaining activity at 30 µM: 30 μM test compound, current ratio, oocytes, read-out: I30 μM/Icontrol (mean ± SEM, %) GluN2B; for IC50: Tables 1 and 2, read-out: IC50 (μM) [95% Confidence Interval] GluN2B
T5 construct: expressed in transfected cells; host or cells: Xenopus laevis oocytes (cRNA injection, GluN1/GluN2 ratio 1:2)
Protocol: as §1, §2, §3

[6] = target: T6, rat GluN1/GluN2C (Rattus norvegicus, UniProt P35439+Q00961); assay: Two-electrode voltage-clamp recording in Xenopus laevis oocytes expressing recombinant rat GluN1/GluN2C; details: for remaining activity at 30 µM: 30 μM test compound, current ratio, oocytes, read-out: I30 μM/Icontrol (mean ± SEM, %) GluN2C; for IC50: Tables 1 and 2, read-out: IC50 (μM) [95% Confidence Interval] GluN2C
T6 construct: expressed in transfected cells; host or cells: Xenopus laevis oocytes (cRNA injection, GluN1/GluN2 ratio 1:2)
Protocol: as §1, §2, §3

[7] = target: T7, rat GluN1/GluN2A (Rattus norvegicus, UniProt P35439+Q00959); assay: Two-electrode voltage-clamp recording in Xenopus laevis oocytes expressing recombinant rat GluN1/GluN2A; details: for remaining activity at 30 µM: 30 μM test compound, current ratio, oocytes, read-out: I30 μM/Icontrol (mean ± SEM, %) GluN2A; for IC50: Tables 1 and 2, read-out: IC50 (μM) [95% Confidence Interval] GluN2A
T7 construct: expressed in transfected cells; host or cells: Xenopus laevis oocytes (cRNA injection, GluN1/GluN2 ratio 1:2)
Protocol: as §1, §2, §3

[8] = target: T8, rat GluN1/GluN2D (Rattus norvegicus, UniProt P35439+Q62645); assay: Two-electrode voltage-clamp recording in Xenopus laevis oocytes expressing recombinant rat GluN1/GluN2D; details: for remaining activity at 30 µM: 30 μM test compound, current ratio, oocytes, read-out: I30 μM/Icontrol (mean ± SEM, %) GluN2D; for IC50: Tables 1 and 2, read-out: IC50 (μM) [95% Confidence Interval] GluN2D
T8 construct: expressed in transfected cells; host or cells: Xenopus laevis oocytes (cRNA injection, GluN1/GluN2 ratio 1:2)
Protocol: as §1, §2, §3

[9] = current ratio reported for 10 μM test compound (footnote c)

T5 sequence (Q00960 27-1482, other chains not shown): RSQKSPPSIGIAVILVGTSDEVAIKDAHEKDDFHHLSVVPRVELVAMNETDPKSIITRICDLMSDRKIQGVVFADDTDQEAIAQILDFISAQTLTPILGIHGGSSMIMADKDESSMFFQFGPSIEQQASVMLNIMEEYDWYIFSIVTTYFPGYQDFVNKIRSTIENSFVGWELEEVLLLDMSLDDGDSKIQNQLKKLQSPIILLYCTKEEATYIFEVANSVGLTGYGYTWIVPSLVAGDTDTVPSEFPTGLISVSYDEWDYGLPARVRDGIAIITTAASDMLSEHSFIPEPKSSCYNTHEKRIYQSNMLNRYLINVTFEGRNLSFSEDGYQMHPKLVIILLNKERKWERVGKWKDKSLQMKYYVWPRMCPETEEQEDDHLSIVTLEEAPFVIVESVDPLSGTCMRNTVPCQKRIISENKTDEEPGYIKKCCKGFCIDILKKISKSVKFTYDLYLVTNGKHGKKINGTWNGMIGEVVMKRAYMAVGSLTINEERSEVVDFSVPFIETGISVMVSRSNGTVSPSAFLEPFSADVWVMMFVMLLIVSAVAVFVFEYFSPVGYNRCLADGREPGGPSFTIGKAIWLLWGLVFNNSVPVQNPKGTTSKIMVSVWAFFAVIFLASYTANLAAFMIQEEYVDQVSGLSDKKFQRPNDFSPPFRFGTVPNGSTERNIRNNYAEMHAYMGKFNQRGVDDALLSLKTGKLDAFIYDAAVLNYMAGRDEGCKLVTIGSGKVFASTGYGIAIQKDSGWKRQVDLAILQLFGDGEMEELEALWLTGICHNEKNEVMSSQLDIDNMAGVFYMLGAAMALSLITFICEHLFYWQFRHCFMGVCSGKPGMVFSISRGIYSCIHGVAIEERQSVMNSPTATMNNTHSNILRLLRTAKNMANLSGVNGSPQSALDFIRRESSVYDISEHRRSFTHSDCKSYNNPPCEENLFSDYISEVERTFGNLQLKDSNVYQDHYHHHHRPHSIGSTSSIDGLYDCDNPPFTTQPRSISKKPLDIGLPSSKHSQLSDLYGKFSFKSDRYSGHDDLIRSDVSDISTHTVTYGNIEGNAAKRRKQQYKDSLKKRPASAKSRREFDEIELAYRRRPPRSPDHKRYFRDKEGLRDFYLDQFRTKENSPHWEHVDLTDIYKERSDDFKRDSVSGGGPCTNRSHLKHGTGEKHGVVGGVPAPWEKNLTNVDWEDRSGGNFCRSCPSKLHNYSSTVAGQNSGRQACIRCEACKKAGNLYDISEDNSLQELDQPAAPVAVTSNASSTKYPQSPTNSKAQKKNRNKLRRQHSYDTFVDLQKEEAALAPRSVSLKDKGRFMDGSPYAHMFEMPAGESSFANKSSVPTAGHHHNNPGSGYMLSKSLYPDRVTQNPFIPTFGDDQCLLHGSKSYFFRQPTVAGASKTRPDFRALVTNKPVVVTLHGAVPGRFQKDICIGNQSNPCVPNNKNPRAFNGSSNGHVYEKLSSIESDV
T1 sequence (Q00960 27-1482, other chains not shown): as above
T6 sequence (Q00961 20-1237, other chains not shown): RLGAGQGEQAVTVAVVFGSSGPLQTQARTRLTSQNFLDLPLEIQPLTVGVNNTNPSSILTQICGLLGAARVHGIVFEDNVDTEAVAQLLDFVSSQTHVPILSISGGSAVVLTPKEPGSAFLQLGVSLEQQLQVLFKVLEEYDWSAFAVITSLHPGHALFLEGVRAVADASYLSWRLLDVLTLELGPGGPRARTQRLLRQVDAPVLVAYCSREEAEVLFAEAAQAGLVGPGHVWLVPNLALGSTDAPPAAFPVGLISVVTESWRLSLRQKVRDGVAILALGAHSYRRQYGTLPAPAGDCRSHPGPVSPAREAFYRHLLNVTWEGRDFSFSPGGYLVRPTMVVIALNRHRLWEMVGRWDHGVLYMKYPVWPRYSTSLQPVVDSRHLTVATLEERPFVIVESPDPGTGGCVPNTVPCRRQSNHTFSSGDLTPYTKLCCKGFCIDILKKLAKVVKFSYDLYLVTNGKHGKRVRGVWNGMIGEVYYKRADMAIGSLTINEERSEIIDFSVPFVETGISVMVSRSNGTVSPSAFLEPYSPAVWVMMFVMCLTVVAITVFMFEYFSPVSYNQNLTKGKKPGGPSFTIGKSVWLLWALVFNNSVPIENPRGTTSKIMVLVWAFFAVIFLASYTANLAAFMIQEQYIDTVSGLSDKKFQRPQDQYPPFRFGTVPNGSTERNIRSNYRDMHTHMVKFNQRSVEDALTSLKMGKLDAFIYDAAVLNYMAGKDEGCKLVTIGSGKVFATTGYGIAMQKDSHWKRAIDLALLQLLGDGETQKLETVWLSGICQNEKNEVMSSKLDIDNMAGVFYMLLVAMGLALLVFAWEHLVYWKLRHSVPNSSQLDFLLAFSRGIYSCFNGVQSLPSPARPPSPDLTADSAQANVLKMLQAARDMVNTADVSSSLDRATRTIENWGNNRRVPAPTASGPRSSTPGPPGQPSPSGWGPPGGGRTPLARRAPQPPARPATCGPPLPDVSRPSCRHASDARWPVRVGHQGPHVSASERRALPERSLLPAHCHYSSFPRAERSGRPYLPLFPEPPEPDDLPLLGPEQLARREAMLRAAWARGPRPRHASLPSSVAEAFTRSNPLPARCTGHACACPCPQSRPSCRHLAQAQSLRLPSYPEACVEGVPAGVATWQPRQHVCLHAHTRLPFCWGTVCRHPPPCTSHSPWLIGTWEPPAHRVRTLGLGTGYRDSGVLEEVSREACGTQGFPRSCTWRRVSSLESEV
T2 sequence (Q00961 20-1237, other chains not shown): as above

SMILES	Current ratio I/Icontrol (mean ± SEM, %) GluN2B [1, 9]	Current ratio I/Icontrol (mean ± SEM, %) GluN2C [2]	Current ratio I/Icontrol (mean ± SEM, %) GluN2A [3]	Current ratio I/Icontrol (mean ± SEM, %) GluN2D [4]	remaining activity at 30 µM [5] [%]	IC50 [5] [µM]	remaining activity at 30 µM [6] [%]	IC50 [6] [µM]	remaining activity at 30 µM [7] [%]	IC50 [7] [µM]	remaining activity at 30 µM [8] [%]	IC50 [8] [µM]	Subunit Selectivity 2A IC50/2D IC50 [4]	Subunit Selectivity 2B IC50/2D IC50 [4]	Current ratio I/Icontrol (mean ± SEM, %) GluN2B ([1]; current ratio reported for 3 μM test compound (footnote d, Table 2))
O=C(CCc1nccs1)N1N=C(c2c(-c3ccc(Cl)cc3)c3ccccc3[nH]c2=O)CC1c1ccc(Cl)cc1 (stereo not drawn) [Compound 123, 4-(4-Chlorophenyl)-3-[3-(4-chlorophenyl)-2-(3-thiazol-2-ylpropanoyl)-3,4-dihydropyrazol-5-yl]-1H-quinolin-2-one]	94 ± 1.7^c (n = 2, 8) %	71 ± 4.8^c (n = 2, 8) %	96 ± 1.8^c (n = 2, 8) %	67 ± 5.1^c (n = 2, 8) %	–	–	–	–	–	–	–	–	–	–	–
O=C(O)CC(F)(F)C(=O)N1N=C(c2c(-c3ccc(Br)cc3)c3ccsc3[nH]c2=O)CC1c1ccc(Cl)cc1 (stereo not drawn) [57(a), 4-[5-[4-(4-Bromophenyl)-6-oxo-7H-thieno[2,3-b]pyridin-5-yl]-3-(4-chlorophenyl)-3,4-dihydropyrazol-2-yl]-3,3-difluoro-4-oxo-butanoic acid]	–	–	–	–	37.7 ± 3.5	19	22 ± 1.5	0.56	47.6 ± 5.5	11	19 ± 3	0.43	24	44	–
O=C(O)CC(F)(F)C(=O)N1N=C(c2c(-c3ccc(Cl)cc3)c3cccnc3[nH]c2=O)CC1c1ccc(Cl)cc1 (stereo not drawn) [Compound 88, 4-[3-(4-Chlorophenyl)-5-[4-(4-chlorophenyl)-2-oxo-1H-1,8-naphthyridin-3-yl]-3,4-dihydropyrazol-2-yl]-3,3-difluoro-4-oxo-butanoic acid]	–	–	–	–	71 ± 0.9	67	6.6 ± 0.9	2.1	49 ± 7.3	45	3.8 ± 0.6	1.3	35	52	–
Cc1[nH]c(=O)c(C2=NN(C(=O)C(F)(F)CC(=O)O)C(c3ccc(Cl)cc3)C2)c(-c2ccc(Cl)cc2)c1C (stereo not drawn) [Compound 56, 4-[3-(4-Chlorophenyl)-5-[4-(4-chlorophenyl)-5,6-dimethyl-2-oxo-1H-pyridin-3-yl]-3,4-dihydropyrazol-2-yl]-3,3-difluoro-4-oxo-butanoic acid]	–	–	–	–	58 ± 2	47	2.7 ± 0.32	1.9	71 ± 5	42	7.9 ± 2.9	2.6	–	–	–
O=C(O)CC(F)(F)C(=O)N1N=C(c2c(-c3ccc(Cl)cc3)c3ccncc3[nH]c2=O)CC1c1ccc(Cl)cc1 (stereo not drawn) [Compound 120, 4-[3-(4-Chlorophenyl)-5-[4-(4-chlorophenyl)-2-oxo-1H-1,7-naphthyridin-3-yl]-3,4-dihydropyrazol-2-yl]-3,3-difluoro-4-oxo-butanoic acid]	82 ± 1.7^c (n = 2, 8) %	18 ± 1.0^c (n = 3, 11) %	77 ± 4.8^c (n = 2, 7) %	7.4 ± 0.9^c (n = 3, 10) %	–	–	–	2.1	–	–	–	0.8	–	–	–
O=C(O)CC(F)(F)C(=O)N1N=C(c2cnccc2-c2ccccc2)CC1c1ccc(Cl)cc1 (stereo not drawn) [Compound 15, 4-[3-(4-Chlorophenyl)-5-(4-phenyl-3-pyridyl)-3,4-dihydropyrazol-2-yl]-3,3-difluoro-4-oxo-butanoic acid]	–	–	–	–	82 ± 1.1	–	91 ± 3.5	–	98 ± 4.1	–	74 ± 7.1	–	–	–	–
O=C(CCc1nnn[nH]1)N1N=C(c2c(-c3ccc(Cl)cc3)c3ccccc3[nH]c2=O)CC1c1ccc(Cl)cc1 (stereo not drawn) [Compound 109, 4-(4-Chlorophenyl)-3-[3-(4-chlorophenyl)-2-[3-(1H-tetrazol-5-yl)propanoyl]-3,4-dihydropyrazol-5-yl]-1H-quinolin-2-one]	–	–	–	–	48 ± 1.9	–	2.3 ± 0.5	–	29 ± 4.1	–	2.4 ± 1.6	–	42	56	–
O=C(O)CC(F)(F)C(=O)N1N=C(c2c(-c3ccc(Cl)cc3)c3ccsc3[nH]c2=O)CC1c1ccc(Cl)cc1 (stereo not drawn) [57(b), 4-[3-(4-Chlorophenyl)-5-[4-(4-chlorophenyl)-6-oxo-7H-thieno[2,3-b]pyridin-5-yl]-3,4-dihydropyrazol-2-yl]-3,3-difluoro-4-oxo-butanoic acid]	–	–	–	–	–	–	6.9 ± 2.5	0.32	86 ± 7.4	–	5.9 ± 2.7	0.25	–	–	88 ± 4.6^d (n = 1, 4) %
Cc1cc(-c2ccc(Cl)cc2)c(C2=NN(C(=O)C(F)(F)CC(=O)O)C(c3ccc(Cl)cc3)C2)c(=O)[nH]1 (stereo not drawn) [Compound 55, 4-[3-(4-Chlorophenyl)-5-[4-(4-chlorophenyl)-6-methyl-2-oxo-1H-pyridin-3-yl]-3,4-dihydropyrazol-2-yl]-3,3-difluoro-4-oxo-butanoic acid]	–	–	–	–	55 ± 3	41	29 ± 2	14	86 ± 4.4	–	26 ± 1.8	12	–	3	–
O=C(O)CC(F)(F)C(=O)N1N=C(c2cnccc2-c2ccc(Cl)cc2)CC1c1ccc(Cl)cc1 (stereo not drawn) [Compound 29, 4-[3-(4-Chlorophenyl)-5-[4-(4-chlorophenyl)-3-pyridyl]-3,4-dihydropyrazol-2-yl]-3,3-difluoro-4-oxo-butanoic acid]	–	–	–	–	79 ± 4.3	–	35 ± 0.84	15	74 ± 3.4	–	27 ± 2.3	12	–	–	–
Cc1cc(-c2ccc(Cl)cc2)c(C2=NN(C(=O)C(F)(F)CC(=O)O)C(c3ccc(Cl)cc3)C2)cn1 (stereo not drawn) [Compound 73, 4-[3-(4-Chlorophenyl)-5-[4-(4-chlorophenyl)-6-methyl-3-pyridyl]-3,4-dihydropyrazol-2-yl]-3,3-difluoro-4-oxo-butanoic acid]	–	–	–	–	100 ± 2.7	–	111 ± 1.9	–	100 ± 2	–	110 ± 3.1	–	–	–	–
O=C(O)CC(F)(F)C(=O)N1N=C(c2c(-c3ccc(Cl)cc3)cc[nH]c2=O)CC1c1ccc(Cl)cc1 (stereo not drawn) [Compound 28, 4-[3-(4-Chlorophenyl)-5-[4-(4-chlorophenyl)-2-oxo-1H-pyridin-3-yl]-3,4-dihydropyrazol-2-yl]-3,3-difluoro-4-oxo-butanoic acid]	–	–	–	–	96 ± 2.4	–	61 ± 1	55	104 ± 2.2	–	39 ± 1.7	20	–	–	–
